Experimental data published in the supplement of paper PMC11061612.

Assays:
AZD7648 = compound: Cc1cc2ncnn2cc1Nc1ncc2c(n1)n(C1CCOCC1)c(=O)n2C [AZD7648]; details: max 10 µM
How it was run: (§1)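 Cancer cell lines were plated in 1536-well plates in 7.5 μl of DMEM/F12 or RPMI with 10% FBS and kept 24 hours at 37°C and 5% CO2 before 72 hours of dosing, with final DMSO typically 0.2%. CellTiter-Glo 2.0 luminescence measured viability, scaled between blank-well and DMSO-well means. Dose responses were fitted to a two-parameter logistic curve with a non-linear mixed effects model. This fit gives the single-agent IC50.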

Venetoclax = compound: CC1(C)CCC(CN2CCN(c3ccc(C(=O)NS(=O)(=O)c4ccc(NCC5CCOCC5)c([N+](=O)[O-])c4)c(Oc4cnc5[nH]ccc5c4)c3)CC2)=C(c2ccc(Cl)cc2)C1 [Venetoclax]; details: max 1 µM
How it was run: as §1

Alisertib = compound: COc1cc(Nc2ncc3c(n2)-c2ccc(Cl)cc2C(c2c(F)cccc2OC)=NC3)ccc1C(=O)O [Alisertib]; details: max 10 µM
How it was run: as §1

Prexasertib = compound: COc1cccc(OCCCN)c1-c1cc(Nc2cnc(C#N)cn2)n[nH]1 [Prexasertib]; details: max 1 µM
How it was run: as §1

AZD2811 = compound: CCN(CCO)CCCOc1ccc2c(Nc3cc(CC(=O)Nc4cccc(F)c4)[nH]n3)ncnc2c1 [AZD2811]; details: max 1 µM
How it was run: as §1

AZD6738 = compound: C[C@@H]1COCCN1C2=NC(=NC(=C2)C3(CC3)[S@](=N)(=O)C)C4=C5C=CNC5=NC=C4 [AZD6738]; details: max 10 µM
How it was run: as §1

MK-2206 = compound: NC1(c2ccc(-c3nc4ccn5c(=O)[nH]nc5c4cc3-c3ccccc3)cc2)CCC1 [MK-2206]; details: max 10 µM
How it was run: as §1

AZD1775 = compound: C=CCn1c(=O)c2cnc(Nc3ccc(N4CCN(C)CC4)cc3)nc2n1-c1cccc(C(C)(C)O)n1 [AZD1775]; details: max 3 µM
How it was run: as §1

Gefitinib = compound: COc1cc2ncnc(Nc3ccc(F)c(Cl)c3)c2cc1OCCCN1CCOCC1 [Gefitinib]; details: max 10 µM
How it was run: as §1

5-Fluorouracil = compound: O=c1[nH]cc(F)c(=O)[nH]1 [5-Fluorouracil]; details: max 20 µM
How it was run: as §1

Dasatinib = compound: CC1=C(C(=CC=C1)Cl)NC(=O)C2=CN=C(S2)NC3=CC(=NC(=N3)C)N4CCN(CC4)CCO [Dasatinib]; details: max 2 µM
How it was run: as §1

Gemcitabine = compound: Nc1ccn([C@@H]2O[C@H](CO)[C@@H](O)C2(F)F)c(=O)n1 [Gemcitabine]; details: max 0.3 µM
How it was run: as §1

Trametinib = compound: CC(=O)Nc1cccc(-n2c(=O)n(C3CC3)c(=O)c3c(Nc4ccc(I)cc4F)n(C)c(=O)c(C)c32)c1 [Trametinib]; details: max 1 µM
How it was run: as §1

Crizotinib = compound: C[C@@H](Oc1cc(-c2cnn(C3CCNCC3)c2)cnc1N)c1c(Cl)ccc(F)c1Cl [Crizotinib]; details: max 10 µM
How it was run: as §1

AZD4320 = compound: CN(CC[C@H](CSC1=CC=CC=C1)NC2=C(C=C(C=C2)S(=O)(=O)NC(=O)C3=CC=C(C=C3)N4CCC(CC4)[C@H](C5=CC=CC=C5C6=CC=C(C=C6)Cl)O)S(=O)(=O)C(F)(F)F)CCO [AZD4320]; details: max 1 µM
How it was run: as §1

SG3199 = compound: CC1=CN2[C@@H](C1)C=NC3=CC(=C(C=C3C2=O)OC)OCCCCCOC4=C(C=C5C(=C4)N=C[C@@H]6CC(=CN6C5=O)C)OC [SG3199]; details: max 0.001 µM
How it was run: as §1

Palbociclib = compound: CC(=O)c1c(C)c2cnc(Nc3ccc(N4CCNCC4)cn3)nc2n(C2CCCC2)c1=O [Palbociclib]; details: max 10 µM
How it was run: as §1

AZD1390 = compound: CC(C)n1c(=O)n(C)c2cnc3cc(F)c(-c4ccc(OCCCN5CCCCC5)nc4)cc3c21 [AZD1390]; details: max 0.3 µM
How it was run: as §1

[1] = compound: O=C(Nc1ccc2[nH]nc(-c3ccncc3)c2c1)[C@@H]1CCN(CC(=O)N2CCN(c3ccc(-c4ncccn4)cc3)CC2)C1; details: max 5 µM
How it was run: as §1

SN-38 = compound: CCc1c2c(nc3ccc(O)cc13)-c1cc3c(c(=O)n1C2)COC(=O)[C@]3(O)CC [SN-38]; details: max 0.3 µM
How it was run: as §1

Etoposide = compound: COc1cc([C@@H]2c3cc4c(cc3[C@@H](O[C@@H]3O[C@@H]5CO[C@@H](C)O[C@H]5[C@H](O)[C@H]3O)[C@H]3COC(=O)[C@H]23)OCO4)cc(OC)c1O [Etoposide]; details: max 10 µM
How it was run: as §1

Paclitaxel = compound: CC(=O)O[C@H]1C(=O)[C@@]2(C)[C@H]([C@H](OC(=O)c3ccccc3)[C@]3(O)C[C@H](OC(=O)[C@H](O)[C@@H](NC(=O)c4ccccc4)c4ccccc4)C(C)=C1C3(C)C)[C@]1(OC(C)=O)CO[C@@H]1C[C@@H]2O [Paclitaxel]; details: max 3 µM
How it was run: as §1

AZD0156 = compound: CN(C)CCCOc1ccc(-c2ccc3ncc4c(c3c2)n(C2CCOCC2)c(=O)n4C)cn1 [AZD0156]; details: max 3 µM
How it was run: as §1

Selumetinib = compound: Cn1cnc2c(F)c(Nc3ccc(Br)cc3Cl)c(C(=O)NOCCO)cc21 [Selumetinib]; details: max 10 µM
How it was run: as §1

AZD8186 = compound: C[C@@H](Nc1cc(F)cc(F)c1)c1cc(C(=O)N(C)C)cc2c(=O)cc(N3CCOCC3)oc12 [AZD8186]; details: max 10 µM
How it was run: as §1

Doxorubicin = compound: COc1cccc2c1C(=O)c1c(O)c3c(c(O)c1C2=O)C[C@@](O)(C(=O)CO)C[C@@H]3O[C@H]1C[C@H](N)[C@H](O)[C@H](C)O1 [Doxorubicin]; details: max 1 µM
How it was run: as §1

Olaparib = compound: O=C(c1cc(Cc2n[nH]c(=O)c3ccccc23)ccc1F)N1CCN(C(=O)C2CC2)CC1 [Olaparib]; details: max 10 µM
How it was run: as §1

Carboplatin = compound: C1CC(C1)(C(=O)[O-])C(=O)[O-].N.N.[Pt+2] [Carboplatin]; details: max 10 µM
How it was run: as §1

Savolitinib = compound: C[C@@H](c1ccc2nccn2c1)n1nnc2ncc(-c3cnn(C)c3)nc21 [Savolitinib]; details: max 1 µM
How it was run: as §1

Lapatinib = compound: CS(=O)(=O)CCNCc1ccc(-c2ccc3ncnc(Nc4ccc(OCc5cccc(F)c5)c(Cl)c4)c3c2)o1 [Lapatinib]; details: max 10 µM
How it was run: as §1

AZD5153 = compound: COc1nnc2ccc(N3CCC(c4ccc(OCCN5CCN(C)C(=O)[C@H]5C)cc4)CC3)nn12 [AZD5153]; details: max 1 µM
How it was run: as §1

AZD5363 = compound: C1CN(CCC1(C(=O)N[C@@H](CCO)C2=CC=C(C=C2)Cl)N)C3=NC=NC4=C3C=CN4 [AZD5363]; details: max 10 µM
How it was run: as §1

AZD5991 = compound: Cc1c2c(nn1C)CSCc1cc(n(C)n1)CSc1cc(c3ccccc3c1)OCCCc1c(C(=O)O)n(C)c3c-2c(Cl)ccc13 [AZD5991]; details: max 1 µM
How it was run: as §1

Taselisib = compound: Cc1nc(-c2cn3c(n2)-c2ccc(-c4cnn(C(C)(C)C(N)=O)c4)cc2OCC3)n(C(C)C)n1 [Taselisib]; details: max 10 µM
How it was run: as §1

SRA737 = compound: N#Cc1cnc(Nc2cc(NC[C@H]3CNCCO3)c(C(F)(F)F)cn2)cn1 [SRA737]; details: max 10 µM
How it was run: as §1

| Cell Line | IC50, cell viability 72 h (AZD7648) | IC50, cell viability 72 h (Venetoclax) | IC50, cell viability 72 h (Alisertib) | IC50, cell viability 72 h (Prexasertib) | IC50, cell viability 72 h (AZD2811) | IC50, cell viability 72 h (AZD6738) | IC50, cell viability 72 h (MK-2206) | IC50, cell viability 72 h (AZD1775) | IC50, cell viability 72 h (Gefitinib) | IC50, cell viability 72 h (5-Fluorouracil) | IC50, cell viability 72 h (Dasatinib) | IC50, cell viability 72 h (Gemcitabine) | IC50, cell viability 72 h (Trametinib) | IC50, cell viability 72 h (Crizotinib) | IC50, cell viability 72 h (AZD4320) | IC50, cell viability 72 h (SG3199) | IC50, cell viability 72 h (Palbociclib) | IC50, cell viability 72 h (AZD1390) | IC50, cell viability 72 h [1] | IC50, cell viability 72 h (SN-38) | IC50, cell viability 72 h (Etoposide) | IC50, cell viability 72 h (Paclitaxel) | IC50, cell viability 72 h (AZD0156) | IC50, cell viability 72 h (Selumetinib) | IC50, cell viability 72 h (AZD8186) | IC50, cell viability 72 h (Doxorubicin) | IC50, cell viability 72 h (Olaparib) | IC50, cell viability 72 h (Carboplatin) | IC50, cell viability 72 h (Savolitinib) | IC50, cell viability 72 h (Lapatinib) | IC50, cell viability 72 h (AZD5153) | IC50, cell viability 72 h (AZD5363) | IC50, cell viability 72 h (AZD5991) | IC50, cell viability 72 h (Taselisib) | IC50, cell viability 72 h (SRA737) |
| --- | --- | --- | --- | --- | --- | --- | --- | --- | --- | --- | --- | --- | --- | --- | --- | --- | --- | --- | --- | --- | --- | --- | --- | --- | --- | --- | --- | --- | --- | --- | --- | --- | --- | --- | --- |
| YT (Other Blood Carcinomas) | 6930 nM | > 1000 nM | > 10000 nM | 26.8 nM | > 1000 nM | 3170 nM | > 10000 nM | 442 nM | > 10000 nM | 808 nM | > 2000 nM | 36.5 nM | > 1000 nM | 8370 nM | > 1000 nM | > 1 nM | 4040 nM | > 300 nM | > 5000 nM | 4.13 nM | 374 nM | 46.5 nM | > 3000 nM | > 10000 nM | > 10000 nM | 511 nM | > 10000 nM | > 10000 nM | > 1000 nM | > 10000 nM | 196 nM | > 10000 nM | 49.4 nM | 1790 nM | 4810 nM |
| BICR78 (Oral Cavity Carcinoma) | > 10000 nM | > 1000 nM | > 10000 nM | 238 nM | > 1000 nM | 7520 nM | > 10000 nM | > 3000 nM | > 10000 nM | > 20000 nM | > 2000 nM | > 300 nM | > 1000 nM | > 10000 nM | > 1000 nM | > 1 nM | > 10000 nM | > 300 nM | > 5000 nM | 28.4 nM | > 10000 nM | 49.3 nM | > 3000 nM | > 10000 nM | > 10000 nM | > 1000 nM | > 10000 nM | > 10000 nM | > 1000 nM | > 10000 nM | 966 nM | > 10000 nM | > 1000 nM | 5010 nM | > 10000 nM |
| FU-OV-1 (Ovarian Carcinoma) | > 10000 nM | > 1000 nM | > 10000 nM | 694 nM | > 1000 nM | > 10000 nM | > 10000 nM | > 3000 nM | > 10000 nM | > 20000 nM | 1480 nM | > 300 nM |  | > 10000 nM | > 1000 nM |  | > 10000 nM | > 300 nM | 3800 nM | > 300 nM | > 10000 nM | > 3000 nM | > 3000 nM | > 10000 nM | > 10000 nM |  | > 10000 nM | > 10000 nM | > 1000 nM | > 10000 nM | 511 nM | > 10000 nM | > 1000 nM | 1090 nM | > 10000 nM |
